From paper PMC2193169 (The Journal of Experimental Medicine, 2000)

How the values were obtained:
Cathepsin Z (Cat Z) = Cathepsin Z (Cat Z) (Mus musculus, UniProt Q9WUU7); experiment: competition of […]-JPM565 active-site labeling in transfected […] cell lysate; type: biochemical
Cathepsin F (Cat F) = target: T1, Cathepsin F (Cat F) (Mus musculus, UniProt Q9R013); type: cell-based
T1 sequence (Q9R013 249-462): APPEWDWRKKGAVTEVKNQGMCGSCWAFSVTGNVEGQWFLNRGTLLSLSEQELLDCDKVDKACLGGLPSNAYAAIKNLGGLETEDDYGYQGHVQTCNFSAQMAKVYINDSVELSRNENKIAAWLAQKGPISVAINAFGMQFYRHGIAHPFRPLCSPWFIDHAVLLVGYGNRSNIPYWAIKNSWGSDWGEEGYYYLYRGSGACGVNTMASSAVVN

Chain of Cathepsin Z (Cat Z) (Q9WUU7 64-306): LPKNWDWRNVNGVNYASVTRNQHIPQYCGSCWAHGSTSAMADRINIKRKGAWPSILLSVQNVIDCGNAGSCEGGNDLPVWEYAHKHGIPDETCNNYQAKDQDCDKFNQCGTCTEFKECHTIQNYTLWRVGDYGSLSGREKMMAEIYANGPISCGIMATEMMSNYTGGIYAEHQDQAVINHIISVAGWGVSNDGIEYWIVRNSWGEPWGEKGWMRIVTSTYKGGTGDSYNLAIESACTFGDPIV

Row | inhibits at this concentration (Cathepsin Z (Cat Z)) | complete inhibition (Cathepsin F (Cat F)) | Compound
1 | 20 (inhibits at this concentration) μM |  | CC(C)C[C@H](NC(=O)[C@H]1O[C@@H]1C(=O)O)C(=O)NCCCCNC(=N)N [E64]
2 |  | 1 (complete inhibition) μM | CC(C)C[C@H](NC(=O)N1CCOCC1)C(=O)N[C@H](/C=C/S(=O)(=O)c1ccccc1)CCc1ccccc1 [LHVS]
